# Reference: patent publication US6417247B1, “Polymer/ceramic composites” (priority 1997, dated 2002)
# Assay: Release of model compounds from chitosan-calcium phosphate composites in PBS
# Conditions: chitosan-TCP composite, PBS pH 7.4, 37° C., FIG. 12
structure (smiles),measurement,value
"O=c1[nH]cc(F)c(=O)[nH]1 [5-FU, 5-fluorouracil]",time over which the model compound was released from the composite,≤ 10 h
